Source: patent publication US12059422B2 (MEI Pharma, Inc., priority 2011, dated 2024)
pIC50: −log10 of the molar value.

Legend:
mTOR = mTOR (Homo sapiens, UniProt P42345); assay: mTOR inhibition (Table 1); type: biochemical; conditions: Table 1, no method described
PI3K delta = molecular target: T1, PI3K delta (Homo sapiens, UniProt O00329); assay: Luciferase-based luminescence assay (KinaseGlo), PI3K delta enzymatic activity; type: biochemical; conditions: for pIC50: inhibition of enzymatic activity, KinaseGlo, 25 μM ATP, read-out: IC50 p110δ; for α/δ ratio: ratio of enzymatic IC50 against PI3Kα over IC50 against PI3Kδ; for β/δ ratio / γ/δ ratio: ratio of enzymatic IC50 values, Table 1
T1 construct: purchased Millipore, Billerica, MA, USA
T1 sequence (O00329 whole entry, species assumed): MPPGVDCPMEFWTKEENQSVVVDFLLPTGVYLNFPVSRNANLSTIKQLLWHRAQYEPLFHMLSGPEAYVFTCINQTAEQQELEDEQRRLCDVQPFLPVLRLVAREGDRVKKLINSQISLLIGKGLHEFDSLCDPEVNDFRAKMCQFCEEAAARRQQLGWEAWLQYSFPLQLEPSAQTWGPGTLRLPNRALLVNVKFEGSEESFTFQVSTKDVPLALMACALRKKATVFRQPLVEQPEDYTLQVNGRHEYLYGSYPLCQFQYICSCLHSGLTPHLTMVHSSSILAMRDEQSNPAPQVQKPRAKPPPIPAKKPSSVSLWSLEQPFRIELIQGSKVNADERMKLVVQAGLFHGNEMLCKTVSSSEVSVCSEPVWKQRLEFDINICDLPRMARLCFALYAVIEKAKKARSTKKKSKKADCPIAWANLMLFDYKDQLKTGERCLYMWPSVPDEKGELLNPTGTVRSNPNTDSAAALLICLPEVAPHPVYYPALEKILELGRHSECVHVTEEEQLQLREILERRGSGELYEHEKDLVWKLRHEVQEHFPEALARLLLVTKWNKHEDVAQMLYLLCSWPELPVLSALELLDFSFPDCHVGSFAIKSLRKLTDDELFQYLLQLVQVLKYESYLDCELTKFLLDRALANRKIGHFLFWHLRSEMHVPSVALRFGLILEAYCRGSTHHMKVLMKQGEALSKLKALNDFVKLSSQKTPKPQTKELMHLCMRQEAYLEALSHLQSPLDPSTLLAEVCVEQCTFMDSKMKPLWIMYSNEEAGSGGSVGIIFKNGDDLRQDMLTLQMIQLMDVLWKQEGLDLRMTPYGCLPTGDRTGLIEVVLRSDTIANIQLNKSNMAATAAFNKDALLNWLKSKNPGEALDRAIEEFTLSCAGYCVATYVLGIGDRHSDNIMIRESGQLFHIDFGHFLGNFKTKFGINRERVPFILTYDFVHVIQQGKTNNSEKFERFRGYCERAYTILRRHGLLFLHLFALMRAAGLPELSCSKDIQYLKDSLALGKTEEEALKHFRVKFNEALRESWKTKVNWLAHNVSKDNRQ
T1 sequence (P27986 whole entry partner, species assumed): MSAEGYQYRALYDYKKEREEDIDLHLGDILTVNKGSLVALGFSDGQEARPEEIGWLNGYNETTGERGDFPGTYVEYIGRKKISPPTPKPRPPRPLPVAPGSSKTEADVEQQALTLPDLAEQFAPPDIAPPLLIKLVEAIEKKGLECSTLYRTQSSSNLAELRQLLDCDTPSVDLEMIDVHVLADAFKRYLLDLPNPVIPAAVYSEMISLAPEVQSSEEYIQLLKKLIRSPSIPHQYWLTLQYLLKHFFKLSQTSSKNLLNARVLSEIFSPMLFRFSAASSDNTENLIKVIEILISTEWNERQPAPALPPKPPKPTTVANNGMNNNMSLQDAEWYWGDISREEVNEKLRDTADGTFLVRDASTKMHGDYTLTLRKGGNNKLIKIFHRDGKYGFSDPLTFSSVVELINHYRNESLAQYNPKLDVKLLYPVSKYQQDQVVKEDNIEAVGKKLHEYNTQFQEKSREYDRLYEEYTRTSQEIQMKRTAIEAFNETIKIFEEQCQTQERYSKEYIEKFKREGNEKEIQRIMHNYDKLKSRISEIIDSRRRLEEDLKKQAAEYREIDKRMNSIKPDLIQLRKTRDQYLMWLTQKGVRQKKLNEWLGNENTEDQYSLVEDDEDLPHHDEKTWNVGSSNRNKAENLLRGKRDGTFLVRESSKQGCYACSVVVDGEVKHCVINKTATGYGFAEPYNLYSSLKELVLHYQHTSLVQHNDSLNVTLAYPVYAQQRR
Outline: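 KinaseGlo luminescence measured ATP remaining after PIP2 (50 μM) phosphorylation with 25 μM ATP in HEPES pH 7.5 buffer with CHAPS and DTT. Final enzyme was 1.65 nM alpha (1 h reaction) or 6.86 nM delta (2 h reaction). IC50 was curve-fitted from 10 concentrations.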

PI3Kδ = molecular target: T2, PI3Kδ (Homo sapiens, UniProt O00329); assay: ELISA assay for PI3Kδ: sandwich ELISA, phosphorylation of AKT (Thr308) in Raji cells; type: cell-based; conditions: for pIC50: cellular, pAKT (Thr308), Raji cells, anti-Human IgM stimulation, read-out: IC50 p110δ; for α/δ ratio / β/δ ratio / γ/δ ratio: ratio of cellular IC50 values, Table 2
T2 construct: endogenous in cells; host or cells: Raji (ATCC #CCL-86)
T2 sequence (O00329 whole entry): as the sequence (O00329 whole entry, species assumed) above
T2 sequence (P27986 whole entry partner): as the sequence (P27986 whole entry partner, species assumed) above
Description: Cellular PI3Kδ activity was determined by measuring the phosphorylation of AKT (Thr308) using a sandwich enzyme-linked immunosorbant assay (ELISA). Raji (Burkitt's Lymphoma) cells were obtained from ATCC (ATCC #CCL-86). Phosphate buffer saline (PBS) contained 2.7 M NaCl, 54 mM KCl, 86 mM […] (dibasic, anhydrous), and 28 mM […] (monobasic, anhydrous) at pH 7.2. Wash buffer contained PBS supplemented with 0.05% Tween-20. Blocking buffer contained wash buffer supplemented with 1% BSA. A 10× stimulation mixture contained 5 μg/mL anti-Human IgM antibody (Sigma #12386) diluted in serum-free RPMI medium (CellGro #CV-10-040-CV). Compounds for testing were dissolved and serially diluted in 100% DMSO (total of 10 concentrations), and then diluted in serum-free RPMI to 5×final assay concentration.
Raji cells were subcultured in RPMI medium supplemented with 10% fetal bovine serum, 100 IU/mL penicillin, 100 μg/mL streptomycin, and 1×MEM non-essential amino acids. Sandwich ELISA plates were prepared by coating 96-well assay plates (Pierce #15042) with 100 μL/well capture antibody (Cell Signaling Technology #7142 or 7144) diluted in PBS. Plates were incubated overnight at 4° C., then washed with wash buffer, after which 200 μL/well blocking buffer was added to the plates and incubated at room temperature for at least 2 hrs. Raji cells were resuspended in serum-free RPMI medium and seeded into V-bottom, 2-mL 96-well blocks (Corning #3961) at 10^6 cells/well, then incubated for 2 hrs in a 37° C., 5% CO2 incubator. Compound treatment was performed by adding the 5× compound mixture to the cells and incubating for 2 hrs at 37° C., 5% CO2, after which the 10× stimulation mixture was added to the plates and incubated for 30 min at 37° C., 5% CO2. Cells were pelleted by centrifuging plates at 1500 RPM for 5 min at room temperature. Media was carefully removed and cells were lysed by adding 100 μL/well cell lysis buffer (Cell Signaling Technology #9803) supplemented with protease and phosphatase inhibitors (Thermo Fisher #78443). Plates were incubated on ice for 30 min, then the lysates (80 μL for pAKT^T308, 10 μL for total AKT) were transferred to prepared assay plates and incubated at 4° C. overnight. After washing plates with wash buffer, 100 μL/well detection antibody (Cell Signaling Technology #7142 or 7144) diluted in blocking buffer was added to the plates and incubated for 1 hr at 37° C. Plates were washed and 100 μL/well of HRP-conjugated secondary antibody (Cell Signaling Technology #7142 or 7144) diluted in blocking buffer was added to plates and incubated for 1 hr at room temperature. Plates were washed with wash buffer and 100 μL/well of luminescent substrate was added to plates. After 1 min on a plate shaker at medium speed, luminescence was read on a Wallac Victor2 plate reader. IC50 values were determined by curve fitting using a Collaborative Drug Discovery database (www.collaborativedrug.com).

Row | Compound | pIC50 (mTOR) | pIC50 (PI3K delta) | α/δ ratio (PI3K delta) | β/δ ratio (PI3K delta) | γ/δ ratio (PI3K delta) | pIC50 (PI3Kδ) | α/δ ratio (PI3Kδ) | β/δ ratio (PI3Kδ) | γ/δ ratio (PI3Kδ)
1 | COc1cc(CC(C)(C)Nc2nc(N3CCOCC3)nc(-n3c(C(F)F)nc4ccccc43)n2)ccc1F [Compound A50, 4-(2-(difluoromethyl)-1H-benzo[d]imidazol-1-yl)-N-(1-(4-fluoro-3-methoxyphenyl)-2-methylpropan-2-yl)-6-morpholino-1,3,5-triazin-2-amine] | < 6.30 | ≥ 7.00 | A’ | C’ | A’ | ≥ 7.00 | A’ | A’ | A’
2 | CC(C)(Cc1ccc(F)cc1F)Nc1nc(N2CCOCC2)nc(-n2c(C(F)F)nc3ccccc32)n1 [Compound A51, 4-(2-(difluoromethyl)-1H-benzo[d]imidazol-1-yl)-N-(1-(2,4-difluorophenyl)-2-methylpropan-2-yl)-6-morpholino-1,3,5-triazin-2-amine] | < 6.30 | ≥ 7.00 | A’ | B’ | C’ | ≥ 7.00 | A’ | D’ | A’
3 | CC(C)(Cc1c(F)cccc1F)Nc1nc(N2CCOCC2)nc(-n2c(C(F)F)nc3ccccc32)n1 [Compound A52, 4-(2-(difluoromethyl)-1H-benzo[d]imidazol-1-yl)-N-(1-(2,6-difluorophenyl)-2-methylpropan-2-yl)-6-morpholino-1,3,5-triazin-2-amine] | < 6.30 | ≥ 7.00 | C’ | B’ | D’ | ≥ 7.00 | A’ | D’ | A’
4 | CC(C)(Cc1ccccc1-c1ccccc1F)Nc1nc(N2CCOCC2)nc(-n2c(C(F)F)nc3ccccc32)n1 [Compound A59, 4-(2-(difluoromethyl)-1H-benzo[d]imidazol-1-yl)-N-(1-(2′-fluorobiphenyl-2-yl)-2-methylpropan-2-yl)-6-morpholino-1,3,5-triazin-2-amine] | < 6.30 | ≥ 7.00 | A’ | A’ | A’ | ≥ 7.00 | A’ | A’ | A’
5 | Cc1ccccc1-c1ccccc1CC(C)(C)Nc1nc(N2CCOCC2)nc(-n2c(C(F)F)nc3ccccc32)n1 [Compound A60, 4-(2-(difluoromethyl)-1H-benzo[d]imidazol-1-yl)-N-(2-methyl-1-(2′-methylbiphenyl-2-yl)propan-2-yl)-6-morpholino-1,3,5-triazin-2-amine] | < 6.30 | ≥ 7.00 | A’ | D’ | A’ | ≥ 7.00 | A’ | A’ | A’
6 | CC(C)(Cc1ccccc1-c1ccccc1Cl)Nc1nc(N2CCOCC2)nc(-n2c(C(F)F)nc3ccccc32)n1 [Compound A61, 4-(2-(difluoromethyl)-1H-benzo[d]imidazol-1-yl)-N-(1-(6′-chlorobiphenyl-2-yl)-2-methylpropan-2-yl)-6-morpholino-1,3,5-triazin-2-amine] | < 6.30 | ≥ 7.00 | A’ | D’ | A’ | ≥ 7.00 | A’ | A’ | A’

The next lines start with the values.

Row | pIC50 (mTOR) | pIC50 (PI3K delta) | α/δ ratio (PI3K delta) | β/δ ratio (PI3K delta) | γ/δ ratio (PI3K delta) | pIC50 (PI3Kδ) | α/δ ratio (PI3Kδ) | β/δ ratio (PI3Kδ) | γ/δ ratio (PI3Kδ) | Compound
7 | < 6.30 | ≥ 7.00 | A’ | D’ | A’ | ≥ 7.00 | A’ | A’ | A’ | CC(C)(Cc1ccccc1-c1cccnc1)Nc1nc(N2CCOCC2)nc(-n2c(C(F)F)nc3ccccc32)n1 [Compound A40, 4-(2-(difluoromethyl)-1H-benzo[d]imidazol-1-yl)-N-(2-methyl-1-(2-(pyridin-3-yl)phenyl)propan-2-yl)-6-morpholino-1,3,5-triazin-2-amine]
8 | < 6.30 | ≥ 7.00 | A’ | A’ | A’ | ≥ 7.00 | A’ | A’ | A’ | COc1cc(-c2ccccc2CC(C)(C)Nc2nc(N3CCOCC3)nc(-n3c(C(F)F)nc4ccccc43)n2)ccn1 [Compound A41, 4-(2-(difluoromethyl)-1H-benzo[d]imidazol-1-yl)-N-(1-(2-(2-methoxypyridin-4-yl)phenyl)-2-methylpropan-2-yl)-6-morpholino-1,3,5-triazin-2-amine]
9 | < 6.30 | ≥ 7.00 | A’ | D’ | A’ | ≥ 7.00 | A’ | A’ | A’ | Cc1cc(-c2ccccc2CC(C)(C)Nc2nc(N3CCOCC3)nc(-n3c(C(F)F)nc4ccccc43)n2)ccn1 [Compound A43, 4-(2-(difluoromethyl)-1H-benzo[d]imidazol-1-yl)-N-(2-methyl-1-(2-(2-methylpyridin-4-yl)phenyl)propan-2-yl)-6-morpholino-1,3,5-triazin-2-amine]
10 | < 6.30 | ≥ 7.00 | A’ | D’ | A’ | ≥ 7.00 | A’ | A’ | A’ | CC(C)(Cc1ccccc1-c1cn[nH]c1)Nc1nc(N2CCOCC2)nc(-n2c(C(F)F)nc3ccccc32)n1 [Compound A44, 4-(2-(difluoromethyl)-1H-benzo[d]imidazol-1-yl)-N-(1-(2-(1H-pyrazol-4-yl)phenyl)-2-methylpropan-2-yl)-6-morpholino-1,3,5-triazin-2-amine]
11 | < 6.30 | ≥ 7.00 | A’ | D’ | A’ | ≥ 7.00 | A’ | B’ | A’ | Cn1cc(-c2ccccc2CC(C)(C)Nc2nc(N3CCOCC3)nc(-n3c(C(F)F)nc4ccccc43)n2)cn1 [Compound A45, 4-(2-(difluoromethyl)-1H-benzo[d]imidazol-1-yl)-N-(2-methyl-1-(2-(1-methyl-1H-pyrazol-4-yl)phenyl)propan-2-yl)-6-morpholino-1,3,5-triazin-2-amine]
12 | < 6.30 | ≥ 7.00 | A’ | D’ | A’ | ≥ 7.00 | A’ | B’ | A’ | Cn1nccc1-c1ccccc1CC(C)(C)Nc1nc(N2CCOCC2)nc(-n2c(C(F)F)nc3ccccc32)n1 [Compound A46, 4-(2-(difluoromethyl)-1H-benzo[d]imidazol-1-yl)-N-(2-methyl-1-(2-(1-methyl-1H-pyrazol-5-yl)phenyl)propan-2-yl)-6-morpholino-1,3,5-triazin-2-amine]
13 | < 6.30 | ≥ 7.00 | A’ | D’ | C’ | ≥ 7.00 | A’ | B’ | A’ | Cc1cccc(CC(C)(C)Nc2nc(N3CCOCC3)nc(-n3c(C(F)F)nc4ccccc43)n2)c1 [Compound A49, 4-(2-(difluoromethyl)-1H-benzo[d]imidazol-1-yl)-N-(2-methyl-1-m-tolylpropan-2-yl)-6-morpholino-1,3,5-triazin-2-amine]
